Earlier results on 13 compounds are cited in article PMC12675387, “Receptor interaction profiles of 4-alkoxy-2,6-dimethoxyphenethylamines (Ψ derivatives) and related amphetamines” (Frontiers in Pharmacology, 2025).

Where two headings read alike, the source gives them in different places.

For data set [1] the following is noted: cited from earlier work; for fold increase in human potency from mescaline: ref Kolaczynska et al., 2022; for duration of effects in humans / psychoactive dose in humans: anecdotal.
A further data set addresses h5-HT2A receptor (Homo sapiens, UniProt P28223). Also on record: expressed in transfected cells; host or cells: HEK 293 cells (membrane preparations). To be noted: ref Kolaczynska et al., 2022; cited from earlier work.
A further data set addresses T1, human 5-HT2A receptor (Homo sapiens, UniProt P28223).
T1 construct: expressed in transfected cells; host or cells: NIH-3T3 mouse embryonic fibroblasts
To be noted: cited from earlier work; for h5-HT2A activation efficacy Emax ± SD: reference substances, ref Luethi et al., 2018; for type of agonism at the 5-HT2A receptor: ref Kolaczynska et al., 2019.

In another data set the target is T2, human 5-HT2B receptor (Homo sapiens, UniProt P41595).
T2 construct: expressed in transfected cells; host or cells: HEK 293 cells
T2 sequence (P41595 whole entry): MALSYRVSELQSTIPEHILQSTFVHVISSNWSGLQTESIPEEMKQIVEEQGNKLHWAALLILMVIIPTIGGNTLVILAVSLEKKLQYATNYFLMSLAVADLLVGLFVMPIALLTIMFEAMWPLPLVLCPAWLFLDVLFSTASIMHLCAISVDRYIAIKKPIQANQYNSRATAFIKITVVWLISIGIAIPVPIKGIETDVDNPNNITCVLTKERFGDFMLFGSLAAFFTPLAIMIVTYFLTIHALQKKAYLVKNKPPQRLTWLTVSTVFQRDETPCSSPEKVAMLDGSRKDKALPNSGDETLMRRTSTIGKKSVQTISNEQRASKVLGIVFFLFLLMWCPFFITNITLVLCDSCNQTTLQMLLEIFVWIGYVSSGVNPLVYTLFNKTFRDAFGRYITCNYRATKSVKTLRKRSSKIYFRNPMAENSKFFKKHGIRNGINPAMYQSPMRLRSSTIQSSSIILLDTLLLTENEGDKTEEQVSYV
On the set-up: method as in Luethi et al., 2018. To be noted: reference substances; ref Luethi et al., 2018; cited from earlier work.

Another data set has as its target rTAAR1 (Rattus norvegicus, UniProt Q923Y9). Also on record: expressed in transfected cells; host or cells: HEK 293 cells (membrane preparations). To be noted: cited from earlier work.
For the next data set, the target named is mTAAR1 (Mus musculus, UniProt Q923Y8). Also on record: expressed in transfected cells; host or cells: HEK 293 cells (membrane preparations); method as in Luethi et al. (2019b). As to conditions: reference substance; ref Luethi et al. (2019b); read-out: mTAAR1 Ki ± SD; cited from earlier work.
mTAAR1, sequence (Q923Y8 whole entry): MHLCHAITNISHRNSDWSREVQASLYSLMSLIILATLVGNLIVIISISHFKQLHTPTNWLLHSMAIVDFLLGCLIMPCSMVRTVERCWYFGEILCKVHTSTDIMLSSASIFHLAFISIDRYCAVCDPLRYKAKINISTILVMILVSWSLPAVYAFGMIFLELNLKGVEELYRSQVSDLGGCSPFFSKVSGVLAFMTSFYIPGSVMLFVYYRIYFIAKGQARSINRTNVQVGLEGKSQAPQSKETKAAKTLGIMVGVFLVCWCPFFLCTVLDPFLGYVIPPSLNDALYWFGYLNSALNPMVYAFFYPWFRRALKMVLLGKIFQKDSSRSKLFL
The next data set has as its target hD2 receptor (Homo sapiens, UniProt P14416). On the set-up: expressed in transfected cells; host or cells: HEK 293 cells (membrane preparations); method as in Luethi et al. (2019b). As to conditions: reference substance; ref Luethi et al. (2019b); read-out: hD2 Ki ± SD; cited from earlier work.
For a further data set, the target named is hNET (Homo sapiens, UniProt P23975). On the set-up: expressed in transfected cells; host or cells: HEK 293 cells (membrane preparations); method as in Luethi et al. (2019b). To be noted: reference substance; ref Luethi et al. (2019b); read-out: hNET Ki ± SD; cited from earlier work.
hNET, sequence (P23975 whole entry): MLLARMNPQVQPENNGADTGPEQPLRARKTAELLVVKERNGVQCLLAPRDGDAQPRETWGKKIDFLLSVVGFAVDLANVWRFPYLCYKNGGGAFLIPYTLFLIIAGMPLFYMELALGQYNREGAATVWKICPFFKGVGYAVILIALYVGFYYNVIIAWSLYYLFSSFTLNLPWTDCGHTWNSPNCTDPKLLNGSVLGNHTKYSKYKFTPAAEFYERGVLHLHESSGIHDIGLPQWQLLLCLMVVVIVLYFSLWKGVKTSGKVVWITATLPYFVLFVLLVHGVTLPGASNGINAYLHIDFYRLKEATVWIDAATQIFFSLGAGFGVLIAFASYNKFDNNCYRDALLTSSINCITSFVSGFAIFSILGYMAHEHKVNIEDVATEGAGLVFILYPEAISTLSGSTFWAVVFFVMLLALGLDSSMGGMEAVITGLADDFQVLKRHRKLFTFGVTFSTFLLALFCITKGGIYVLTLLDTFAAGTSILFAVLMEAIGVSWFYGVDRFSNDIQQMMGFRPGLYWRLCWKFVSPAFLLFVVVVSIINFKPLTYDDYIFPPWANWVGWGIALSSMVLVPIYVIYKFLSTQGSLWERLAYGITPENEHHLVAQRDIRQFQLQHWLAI
The target of the next data set is hDAT (Homo sapiens, UniProt Q01959). On the set-up: expressed in transfected cells; host or cells: HEK 293 cells (membrane preparations); method as in Luethi et al. (2019b). As to conditions: reference substance; ref Luethi et al. (2019b); read-out: hDAT Ki ± SD; cited from earlier work.
hDAT, sequence (Q01959 whole entry): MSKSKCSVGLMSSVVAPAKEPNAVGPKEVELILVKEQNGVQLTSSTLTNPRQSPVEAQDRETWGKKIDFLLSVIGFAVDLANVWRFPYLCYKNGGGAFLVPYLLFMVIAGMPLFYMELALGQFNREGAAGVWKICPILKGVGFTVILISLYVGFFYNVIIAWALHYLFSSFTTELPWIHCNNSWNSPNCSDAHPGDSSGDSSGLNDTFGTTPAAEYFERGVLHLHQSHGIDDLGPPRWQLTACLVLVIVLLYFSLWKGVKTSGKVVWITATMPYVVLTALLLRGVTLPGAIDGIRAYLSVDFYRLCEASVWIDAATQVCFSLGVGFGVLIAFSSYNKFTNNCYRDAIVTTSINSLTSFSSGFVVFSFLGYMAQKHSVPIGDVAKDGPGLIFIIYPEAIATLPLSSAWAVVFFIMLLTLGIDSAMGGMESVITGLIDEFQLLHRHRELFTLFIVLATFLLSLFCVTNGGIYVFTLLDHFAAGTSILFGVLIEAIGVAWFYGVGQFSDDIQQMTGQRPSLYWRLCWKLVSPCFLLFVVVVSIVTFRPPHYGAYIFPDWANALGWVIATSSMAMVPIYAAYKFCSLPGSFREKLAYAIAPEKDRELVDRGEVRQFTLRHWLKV
Another data set has as its target hSERT (Homo sapiens, UniProt P31645). On the set-up: expressed in transfected cells; host or cells: HEK 293 cells (membrane preparations); method as in Luethi et al. (2019b). As to conditions: reference substance; ref Luethi et al. (2019b); read-out: hSERT Ki ± SD; cited from earlier work.
Another data set has as its target T3, hα2A adrenergic receptor (Homo sapiens, UniProt P08913).
T3 sequence (P08913 1-465): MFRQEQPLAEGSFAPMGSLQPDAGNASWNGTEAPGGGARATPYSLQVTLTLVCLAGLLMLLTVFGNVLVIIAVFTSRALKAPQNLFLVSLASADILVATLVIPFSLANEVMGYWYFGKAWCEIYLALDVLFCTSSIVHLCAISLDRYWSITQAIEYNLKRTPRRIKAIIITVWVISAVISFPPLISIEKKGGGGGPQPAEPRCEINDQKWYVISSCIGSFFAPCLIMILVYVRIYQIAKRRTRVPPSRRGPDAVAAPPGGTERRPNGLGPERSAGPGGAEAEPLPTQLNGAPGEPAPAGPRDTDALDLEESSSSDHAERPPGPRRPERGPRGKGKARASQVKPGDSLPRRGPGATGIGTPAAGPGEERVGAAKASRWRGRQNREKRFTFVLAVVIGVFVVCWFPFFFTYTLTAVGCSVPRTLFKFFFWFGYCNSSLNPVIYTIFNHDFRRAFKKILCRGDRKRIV
On the set-up: expressed in transfected cells; host or cells: Chinese hamster lung cells (membrane preparations); method as in Luethi et al. (2019b). To be noted: reference substance; ref Luethi et al. (2019b); read-out: hα2A Ki ± SD; cited from earlier work.

A further data set deals with T4, hα1A adrenergic receptor (Homo sapiens, UniProt P35348).
T4 sequence (P35348 1-466): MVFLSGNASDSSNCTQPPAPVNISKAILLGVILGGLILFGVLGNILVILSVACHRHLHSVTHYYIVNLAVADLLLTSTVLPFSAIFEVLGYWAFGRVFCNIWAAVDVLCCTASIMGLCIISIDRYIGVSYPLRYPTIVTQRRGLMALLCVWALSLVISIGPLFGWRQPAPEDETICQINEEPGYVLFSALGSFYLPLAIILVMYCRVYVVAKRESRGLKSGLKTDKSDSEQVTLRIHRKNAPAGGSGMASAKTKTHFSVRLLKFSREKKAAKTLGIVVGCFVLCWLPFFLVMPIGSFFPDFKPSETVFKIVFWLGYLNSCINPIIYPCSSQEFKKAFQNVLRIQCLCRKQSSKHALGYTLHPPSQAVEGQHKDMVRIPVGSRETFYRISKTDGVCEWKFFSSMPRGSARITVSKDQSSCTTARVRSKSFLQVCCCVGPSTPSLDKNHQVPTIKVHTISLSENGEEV
Also on record: expressed in transfected cells; host or cells: Chinese hamster ovary cells (membrane preparations); method as in Luethi et al. (2019b). As to conditions: reference substance; ref Luethi et al. (2019b); read-out: hα1A Ki ± SD; cited from earlier work.

T1 sequence (P28223 whole entry): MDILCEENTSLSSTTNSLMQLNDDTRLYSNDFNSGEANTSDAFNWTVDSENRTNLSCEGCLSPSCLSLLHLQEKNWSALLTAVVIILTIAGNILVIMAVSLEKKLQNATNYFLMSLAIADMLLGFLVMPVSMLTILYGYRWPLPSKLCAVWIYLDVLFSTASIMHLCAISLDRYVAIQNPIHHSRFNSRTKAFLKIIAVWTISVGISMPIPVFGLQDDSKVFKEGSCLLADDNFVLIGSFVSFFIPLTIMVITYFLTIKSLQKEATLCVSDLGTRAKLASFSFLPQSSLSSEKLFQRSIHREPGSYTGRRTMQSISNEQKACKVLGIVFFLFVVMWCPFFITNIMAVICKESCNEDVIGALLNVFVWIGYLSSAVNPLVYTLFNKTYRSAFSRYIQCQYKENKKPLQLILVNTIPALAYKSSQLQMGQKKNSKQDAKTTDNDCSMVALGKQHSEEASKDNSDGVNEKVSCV
h5-HT2A receptor, sequence (P28223 whole entry): as above
rTAAR1, sequence (Q923Y9 whole entry): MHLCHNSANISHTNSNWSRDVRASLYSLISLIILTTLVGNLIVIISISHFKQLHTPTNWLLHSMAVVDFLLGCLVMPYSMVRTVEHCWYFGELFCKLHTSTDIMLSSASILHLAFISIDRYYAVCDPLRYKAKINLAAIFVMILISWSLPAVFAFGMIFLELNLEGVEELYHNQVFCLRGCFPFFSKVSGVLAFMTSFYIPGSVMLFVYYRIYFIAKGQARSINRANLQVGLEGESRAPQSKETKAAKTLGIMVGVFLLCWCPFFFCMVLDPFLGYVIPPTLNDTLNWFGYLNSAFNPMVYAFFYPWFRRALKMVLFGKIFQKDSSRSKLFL
hSERT, sequence (P31645 whole entry): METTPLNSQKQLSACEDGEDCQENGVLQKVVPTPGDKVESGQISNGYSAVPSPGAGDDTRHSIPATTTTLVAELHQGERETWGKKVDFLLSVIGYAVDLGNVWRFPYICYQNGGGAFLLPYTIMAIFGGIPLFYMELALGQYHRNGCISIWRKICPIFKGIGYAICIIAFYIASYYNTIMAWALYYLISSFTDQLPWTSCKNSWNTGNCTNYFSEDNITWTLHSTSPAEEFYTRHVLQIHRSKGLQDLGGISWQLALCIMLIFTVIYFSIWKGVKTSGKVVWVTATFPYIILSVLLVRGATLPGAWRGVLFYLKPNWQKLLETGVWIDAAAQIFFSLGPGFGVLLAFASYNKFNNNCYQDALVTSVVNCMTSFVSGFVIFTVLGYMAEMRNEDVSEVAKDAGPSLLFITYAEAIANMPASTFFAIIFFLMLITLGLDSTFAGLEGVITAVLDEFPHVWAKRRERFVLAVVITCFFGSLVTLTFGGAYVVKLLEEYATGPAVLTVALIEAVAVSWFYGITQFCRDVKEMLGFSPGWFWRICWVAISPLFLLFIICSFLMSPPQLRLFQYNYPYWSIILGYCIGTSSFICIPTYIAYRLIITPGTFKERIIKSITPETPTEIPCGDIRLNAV
hD2 receptor, sequence (P14416 whole entry): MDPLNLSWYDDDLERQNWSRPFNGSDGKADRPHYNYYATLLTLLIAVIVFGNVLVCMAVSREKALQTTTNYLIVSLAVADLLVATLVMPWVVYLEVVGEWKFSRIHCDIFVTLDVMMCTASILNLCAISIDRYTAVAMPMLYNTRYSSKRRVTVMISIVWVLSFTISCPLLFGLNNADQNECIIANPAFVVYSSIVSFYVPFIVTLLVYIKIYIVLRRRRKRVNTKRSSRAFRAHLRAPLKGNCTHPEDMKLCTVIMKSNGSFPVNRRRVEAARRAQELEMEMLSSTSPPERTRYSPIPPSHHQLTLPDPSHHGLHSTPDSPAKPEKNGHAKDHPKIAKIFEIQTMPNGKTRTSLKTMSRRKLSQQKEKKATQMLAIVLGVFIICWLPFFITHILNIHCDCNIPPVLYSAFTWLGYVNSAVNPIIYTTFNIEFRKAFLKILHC

`COc1cc(CCN)cc(OC)c1OC(F)(F)F` [trifluoromescaline]: the “fold increase in human potency from mescaline” value in [1] was above 9 fold. Besides, the “fold increase in receptor affinity (Ki values) from mescaline” value on h5-HT2A receptor is listed as 33 fold.

Turning to `COc1cc(SC(C)C)c(OC)cc1CCN` [2C-T-4], in data set [1] (ref Shulgin and Shulgin, 1991), the “duration of effects in humans” value is 12 to 18 h and the “psychoactive dose in humans” value was 8 to 20 mg.

Consider `CCN(CC)C(=O)[C@@H]1C=C2c3cccc4[nH]cc(c34)C[C@H]2N(C)C1` [LSD, lysergic acid diethylamide], for which the “h5-HT2A activation efficacy Emax ± SD” value on human 5-HT2A receptor was 73 ± 2%.

With `COc1cc(CCN)c(OC)cc1Br` [2C-B, 4-bromo-2,5-dimethoxyphenethylamine], at human 5-HT2A receptor, the “h5-HT2A activation efficacy Emax ± SD” value is given as 92 ± 8%. Further, the “h5-HT2B activation efficacy Emax ± SD” value on human 5-HT2B receptor is on record as 52 ± 26%.

For `COc1cc(SC(C)C)cc(OC)c1CCN` [Ψ-2C-T-4, 2,6-dimethoxy-4-isopropylthiophenethylamine], the “psychoactive dose in humans” value in data set [1] (ref Shulgin and Shulgin, 1991) is recorded as above 12 mg. Moreover, the activity in humans result in data set [1] (highest dose evaluated (12 mg), anecdotal report, ref Shulgin and Shulgin, 1991) is “inactive”.

With `COc1cc(CCN)cc(OC)c1OC(F)F` [DFM], the “fold increase in human potency from mescaline” value in [1] is listed as 4 fold. For the same compound, the “fold increase in receptor affinity (Ki values) from mescaline” value at h5-HT2A receptor is 3 fold.

With `COc1cc(CC(C)N)c(OC)cc1C` (stereo not shown) [DOM], in [1] (ref Shulgin and Shulgin, 1991), the “duration of effects in humans” value is 14 to 20 h and the “psychoactive dose in humans” value is 3 to 10 mg.

The term Ki denotes a dissociation constant, usually derived from enzyme kinetics or from competition with a known ligand. In the case of `CCOc1cc(OC)c(CCN)cc1OC` [2C-O-2], the Ki at rTAAR1 (read-out: TAAR1 Ki (rat and mouse TAAR1 as worded; compared with the rat value of Ψ-2C-O-2), 2,4,5-trisubstituted derivative, ref Kolaczynska et al., 2019) is 0.67 µM.

Regarding `C=CCOc1cc(OC)c(CC(C)N)cc1OC` (stereo not shown) [MALM], the “type of agonism at the 5-HT2A receptor” value at human 5-HT2A receptor is recorded as “full agonists”.

On to `COc1cc(OC)c(OC)cc1CC(C)N` (stereo not shown) [TMA-2], for which, in data set [1] (ref Shulgin and Shulgin, 1991), the “duration of effects in humans” value is 8 to 12 h and the “psychoactive dose in humans” value is 20 to 40 mg.

Consider `COc1cc(C)cc(OC)c1CC(C)N` (stereo not shown) [Ψ-DOM, 2,6-dimethoxy-4-methylamphetamine], for which, in [1] (ref Shulgin and Shulgin, 1991), the “duration of effects in humans” value is 6 to 8 h and the “psychoactive dose in humans” value is 15 to 25 mg.

`C=C(C)COc1cc(OC)c(CC(C)N)cc1OC` (stereo not shown) [MMALM]: the “type of agonism at the 5-HT2A receptor” value on human 5-HT2A receptor was “full agonists”.

As for `CNC(C)Cc1ccc2c(c1)OCO2` (stereo not shown) [MDMA], the Ki on rTAAR1 (reference substance, ref Luethi et al. (2019b), read-out: rTAAR1 Ki ± SD) is 0.25 ± 0.01 µM; at mTAAR1 it was 3.1 µM; on hD2 receptor, above 13 µM; at hNET, above 8.7 µM; at hDAT it was above 8.5 µM; at hSERT it was above 7.5 µM. In addition, the Ki on hα2A adrenergic receptor is 4.6 µM; at hα1A adrenergic receptor, 6.9 µM.
